Results: PMC6152408, “Interaction of Flavonoids from Woodwardia unigemmata with Bovine Serum Albumin (BSA): Application of Spectroscopic Techniques and Molecular Modeling Methods” (Molecules : A Journal of Synthetic Chemistry and Natural …, 2017)

Target: T1, bovine serum albumin (BSA) (Bos taurus, UniProt P02769)
T1 construct: gene ALB; commercial fatty acid-free native BSA (Shanghai Shenhang Biotechnology), mature, 583 residues, untagged; PDB 4JK4 used only for docking
Experiment: intrinsic fluorescence quenching (ex […] nm)
Assay type: binding
Settings: 297 K, pH 7.4, 0.05 M Tris-HCl, 0.1 M NaCl, 5 µM BSA; double-log

T1 sequence (P02769 25-607): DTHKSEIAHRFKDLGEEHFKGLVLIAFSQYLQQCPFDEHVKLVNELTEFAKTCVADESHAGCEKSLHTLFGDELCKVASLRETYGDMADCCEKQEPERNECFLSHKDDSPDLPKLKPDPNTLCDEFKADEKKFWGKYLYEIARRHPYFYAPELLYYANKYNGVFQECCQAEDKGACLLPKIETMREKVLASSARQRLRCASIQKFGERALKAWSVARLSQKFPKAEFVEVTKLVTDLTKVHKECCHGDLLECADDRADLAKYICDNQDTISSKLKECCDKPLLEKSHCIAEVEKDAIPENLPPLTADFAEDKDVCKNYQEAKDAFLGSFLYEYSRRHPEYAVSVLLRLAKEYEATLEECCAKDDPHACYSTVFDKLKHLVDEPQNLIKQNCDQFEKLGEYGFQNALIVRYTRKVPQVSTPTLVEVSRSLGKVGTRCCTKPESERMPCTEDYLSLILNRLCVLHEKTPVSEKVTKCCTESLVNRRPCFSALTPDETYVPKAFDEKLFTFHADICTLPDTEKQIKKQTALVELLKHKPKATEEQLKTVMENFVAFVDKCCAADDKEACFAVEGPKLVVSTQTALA

| SMILES | Kb (×10^5 L.mol^-1) |
| --- | --- |
| CC(=O)O[C@@H]1[C@@H](OC(C)=O)[C@@H](O)[C@H](Oc2c(-c3ccc(O)cc3)oc3cc(O[C@@H]4O[C@@H](C)[C@H](O)[C@@H](O)[C@H]4O)cc(O)c3c2=O)O[C@H]1C [compound 2, crassirhizomoside B] | 0.57 × 10^5 L·mol^−1 |
| CC(=O)O[C@@H]1[C@@H](O)[C@H](C)O[C@@H](Oc2c(-c3ccc(O)cc3)oc3cc(O[C@@H]4O[C@@H](C)[C@H](O)[C@@H](O)[C@H]4O)cc(O)c3c2=O)[C@@H]1O [compound 4, kaempferol 3-O-α-L-(3-O-acetyl) rhamopyranoside-7-O-α-L-rhamnopyranoside] | 1.06 × 10^5 L·mol^−1 |
| CC(=O)O[C@H]1[C@H](Oc2c(-c3ccc(O)cc3)oc3cc(O[C@@H]4O[C@@H](C)[C@H](O)[C@@H](O)[C@H]4O)cc(O)c3c2=O)O[C@@H](C)[C@H](O)[C@H]1O [compound 5, kaempferol 3-O-α-L-(2-O-acetyl) rhamopyranoside-7-O-α-L-rhamnopyranoside] | 0.96 × 10^5 L·mol^−1 |
| CC(=O)O[C@@H]1[C@@H](O)[C@@H](O)[C@H](Oc2cc(O)c3c(=O)c(O[C@@H]4O[C@@H](C)[C@H](OC(C)=O)[C@@H](OC(C)=O)[C@H]4O)c(-c4ccc(O)cc4)oc3c2)O[C@H]1C [compound 1, kaempferol3-O-α-L-(3,4-O-di-acetyl) rhamopyranoside-7-O-α-L-(4-O-acetyl) rhamnopyranoside] | 0.41 × 10^5 L·mol^−1 |
